{"source": "paper PMC5365251", "about": "“Biophysical assay for tethered signaling reactions reveals tether-controlled activity for the phosphatase SHP-1” (Science Advances, 2017)", "key": {"[1]": {"system": "PEG12-ITIM peptide", "test": "Solution phosphatase assay (inorganic phosphate release)", "assay_type": "biochemical, mouse", "details": "PEG12-ITIM 10 μM, pH 7.4, 10°C, BIOMOL Green; fit of progress curves", "procedure": "Purified SHP-1 was mixed with PEG12-ITIM peptide at 10 μM, in 10 mM Hepes (pH 7.4), 150 mM NaCl, 3 mM EDTA, 0.005% Surfactant P20, and 1 mM dithiothreitol (Sigma). Temperature was regulated to 10°C with a thermocycler heat block, and the production of inorganic phosphate was measured at the indicated time points using BIOMOL Green (Enzo Life Sciences).\nThe resulting progress curves (Fig. 1B) were fit using a standard mathematical model ([20]) based on the following reaction scheme F+S^*⇌koffkonCkcat⇀F+S where F is the phosphatase, S* is the phosphorylated peptide substrate, S is the unphosphorylated peptide product, and C is the intermediate enzyme-substrate complex. This reaction scheme corresponds to the following coupled ODEs ∂F/∂t=−konFS*+(koff+kcat)C∂S*/∂t=−konFS*+koffC∂C/∂t=konFS*−(koff+kcat)C∂S/∂t=kcatC with the following conservation equations for the enzyme and substrate, FT=E+CST=S*+C+S where FT is the initial SHP-1 concentration and ST is the initial concentration of phosphorylated substrate. A common assumption for in vitro solution-based enzyme assays is that the enzyme-substrate complex (C) changes on a […] time scale compared to the time scale of product formation (that is, ∂C/∂t ≈ 0). Using this quasi–steady-state approximation, which is valid when E ≪ S + Km ([46], [47]), we find C = FTS^∗/(Km + S^∗). […] The initial condition is S(t = 0) = 0. […]"}, "[2]": {"system": "PEG28-ITIM", "test": "Anti-phosphotyrosine antibody injected after SHP-1 on SPR chip: surviving phosphotyrosines", "assay_type": "biochemical, mouse", "procedure": "To create a substrate surface for SHP-1 in SPR, we coated a surface with peptides containing an ITIM sequence, from the […] of the inhibitory receptor LAIR-1, with a 28-repeat polyethylene glycol (PEG) spacer (PEG28-ITIM; Table 1). When SHP-1 was injected over this surface, we observed a complicated curve with an initial binding phase that was quickly followed by a reduction in binding despite continuous injection of SHP-1 (Fig. 2A). To convert the arbitrary response units reported by the SPR instrument to a more meaningful unit, we normalized this curve to maximum binding, assuming a one-to-one interaction with peptide (see Materials and Methods).\nFig. 2 An SPR assay recovers five independent biophysical/biochemical constants characterizing tethered enzymatic reactions by SHP-1. (A) Representative SPR trace (black dots) for SHP-1 injected over a surface immobilized with 48.5 RU of an ITIM peptide derived from LAIR-1 on a 28-repeat PEG linker (PEG28-ITIM). A fit of the MPDPDE model (red line) provides estimates for the indicated parameters. Early time data and fit are shown on the right. S1. […] (C) Schematic of reactions taking place when SHP-1 is injected over a surface of immobilized phosphorylated peptides. […]"}}, "data": [{"substance": "SHP-1: murine SHP-1 tyrosine phosphatase with an N-terminal 6× His tag, expressed in E. coli", "values": [{"measurement": "k*cat (= kcat/Km), overall catalytic rate in solution", "setting": "[1]", "result": 6800, "unit": "M⁻¹ s⁻¹"}, {"measurement": "dephosphorylation of immobilised peptide (in words)", "setting": "[2]; anti-phosphotyrosine antibody (clone 4G10) injected after SHP-1 on SPR chip, PEG28-ITIM", "result": "near complete dephosphorylation"}, {"measurement": "anti-phosphotyrosine antibody binding after SHP-1 injection (in words)", "setting": "[2]; experimental flow cell compared to buffer-injected control with equivalent peptide levels, Fig. 2B", "result": "reduced binding"}]}]}
